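Cultured in 96-well plates, cells were exposed to test compound for 48 hours across five concentrations. GI50 is the concentration that inhibits growth by half.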 Calls of active or inactive are those of the source. No stated cut-off is given here; in the data, active = GI50 up to about 1.1 µM and inactive = higher.
Assays:
Test in all cases: NCI tumour cell line growth inhibition, 48 h
RXF 631 = tested on: RXF 631
DMS-273 = tested on: DMS-273
DLD-1 = tested on: DLD-1
HOP-18 = tested on: HOP-18
DMS-114 = tested on: DMS-114
SNB-78 = tested on: SNB-78
M19-MEL = tested on: M19-MEL
KM-20L2 = tested on: KM-20L2
XF498 = tested on: XF498

Row | SMILES | GI50 (RXF 631) | GI50 (DMS-273) | GI50 (DLD-1) | GI50 (HOP-18) | GI50 (DMS-114) | GI50 (SNB-78) | GI50 (M19-MEL) | GI50 (KM-20L2) | GI50 (XF498)
1 | COC12OCCN(C)C1=CC(=O)C1=NNC(C)C12 (stereo not given) | > 100 µM (inactive) | > 100 µM (inactive) | > 100 µM (inactive) | > 100 µM (inactive) | > 100 µM (inactive) | > 100 µM (inactive) | > 100 µM (inactive) |  | 
2 | CCc1ccc(Cc2ccc(CC)c(NC(=O)C(=O)Cc3nc4ccccc4nc3C)c2CC)c(CC)c1NC(=O)C(=O)Cc1nc2ccccc2nc1C | 84.9 µM (inactive) |  | > 100 µM (inactive) |  | 47.5 µM (inactive) | 76.2 µM (inactive) | > 100 µM (inactive) | > 100 µM (inactive) | 
3 | Cc1cc(C)nc(NS(=O)(=O)c2ccc(Nc3c4ccccc4nc4c(C(=O)Nc5ccc(S(=O)(=O)Nc6cc(C)on6)cc5)ccc(Cl)c34)cc2)n1 | 20.7 µM (inactive) |  | 17.2 µM (inactive) |  |  | 29.2 µM (inactive) | 37.9 µM (inactive) | 19.5 µM (inactive) | 18.7 µM (inactive)
4 | O=C1CCC(c2nc3ccccc3o2)C(=O)N1 (stereo not given) | > 100 µM (inactive) | > 100 µM (inactive) | > 100 µM (inactive) | > 100 µM (inactive) | > 100 µM (inactive) | > 100 µM (inactive) | > 100 µM (inactive) | > 100 µM (inactive) | 
5 | COc1ccc(Nc2nc3cc(C(F)(F)F)ccc3nc2-c2ccccc2)cc1OC |  | 6.08 µM (inactive) | 21.4 µM (inactive) | < 0.01 µM (active) | 10.3 µM (inactive) | 25.4 µM (inactive) |  |  | 1.71 µM (inactive)
6 | CCCCCCCCCCCc1cc(=O)c2c(O)cccc2o1 | > 100 µM (inactive) | 56.6 µM (inactive) | > 100 µM (inactive) | > 100 µM (inactive) | 38.7 µM (inactive) | > 100 µM (inactive) | 43.8 µM (inactive) |  | 42.8 µM (inactive)
7 | O=C(Nc1cc(Cl)c(Cl)cc1Cl)C(=O)C(C(=O)c1ccccc1)C1OC(=O)c2ccccc21 (stereo not given) | > 100 µM (inactive) | > 100 µM (inactive) | > 100 µM (inactive) | 38.3 µM (inactive) | > 100 µM (inactive) | > 100 µM (inactive) | > 100 µM (inactive) | > 100 µM (inactive) | > 100 µM (inactive)
8 | Clc1ccc(C2SCc3nc4ccccc4n32)c(Cl)c1 (stereo not given) |  |  | 15.7 µM (inactive) | 19.5 µM (inactive) | 8.3 µM (inactive) |  | 14.8 µM (inactive) | 21.4 µM (inactive) | 19.1 µM (inactive)
9 | CCOC1=C2N=C(Cc3ccccc3F)N=C2C(=O)c2ccccc21 |  | > 100 µM (inactive) | > 100 µM (inactive) | > 100 µM (inactive) | > 100 µM (inactive) |  | > 100 µM (inactive) | > 100 µM (inactive) | > 100 µM (inactive)
10 | CC(=O)OC1CC2C(C)(C)C(=O)C=C[C@]2(C)C2CCC3(C)C(=CCC3[C@H](CO)C[C@H](O)C(=O)C(C)(C)O)[C@]12C (stereo not given in full) | 30.5 µM (inactive) | 30.9 µM (inactive) | 14.9 µM (inactive) | 54.1 µM (inactive) | 33.9 µM (inactive) | 76.4 µM (inactive) | 35.8 µM (inactive) | 13.6 µM (inactive) | 
11 | NC(CCCNCc1ccccc1)C(=O)O (stereo not given) | > 100 µM (inactive) | > 100 µM (inactive) | > 100 µM (inactive) | > 100 µM (inactive) | > 100 µM (inactive) |  | > 100 µM (inactive) | > 100 µM (inactive) | 
12 | CCCCCCCCCCn1cccc1/C=C/c1ccc(/C=C/c2cccn2CCCCCCCCCC)cc1 |  | > 100 µM (inactive) | > 100 µM (inactive) | > 100 µM (inactive) | > 100 µM (inactive) | > 100 µM (inactive) | > 100 µM (inactive) | > 100 µM (inactive) | > 100 µM (inactive)
13 | Cc1c2ccncc2c(C)c2c1[nH]c1ccc(OC(C)(C)C)cc12 | 2.45 µM (inactive) | 1.86 µM (inactive) | 2.39 µM (inactive) |  | 2.02 µM (inactive) | 2.41 µM (inactive) | 2.14 µM (inactive) | 1.78 µM (inactive) | 1.93 µM (inactive)
14 | COc1ccc(C=C(c2ccc(OCc3ccccc3)cc2)c2ccc(OCc3ccccc3)cc2)cc1 | > 100 µM (inactive) | > 100 µM (inactive) | > 100 µM (inactive) | > 100 µM (inactive) | > 100 µM (inactive) | > 100 µM (inactive) | > 100 µM (inactive) | > 100 µM (inactive) | > 100 µM (inactive)
15 | N#CC1(N2CCCC2)CCC2(CC1)OCCO2 |  | > 10 µM (inactive) |  |  | > 100 µM (inactive) | > 100 µM (inactive) | > 10 µM (inactive) | > 100 µM (inactive) | 
16 | O=C(O)c1cc(S(=O)(=O)N/N=C\c2c3ccccc3[n+]([O-])c3ccccc23)ccc1O |  | 7.16 µM (inactive) | 16.7 µM (inactive) | 11.7 µM (inactive) | 12.7 µM (inactive) | 20.6 µM (inactive) | 13.3 µM (inactive) | 13.3 µM (inactive) | 
17 | N#C/C(=C\c1cc(O)ccc1O)C(N)=O | 58.1 µM (inactive) | 47.3 µM (inactive) | 70.6 µM (inactive) |  | 24.8 µM (inactive) | 25.6 µM (inactive) | 51.3 µM (inactive) | 46.8 µM (inactive) | 65.3 µM (inactive)
18 | O=C(O)CCNCCCCNCCC(=O)O |  | > 100 µM (inactive) | > 100 µM (inactive) | > 100 µM (inactive) |  |  |  | > 100 µM (inactive) | > 100 µM (inactive)
19 | C=CCOC(C)n1c(C)c(Br)c(=O)[nH]c1=O (stereo not given) |  | > 100 µM (inactive) | > 100 µM (inactive) |  | > 100 µM (inactive) |  | > 100 µM (inactive) | > 100 µM (inactive) | > 100 µM (inactive)
20 | O=C1c2ccccc2C(=O)C1C(c1ccc(F)cc1)C1C(=O)c2ccccc2C1=O | > 100 µM (inactive) | > 100 µM (inactive) | > 100 µM (inactive) | > 100 µM (inactive) | > 100 µM (inactive) | > 100 µM (inactive) | 61 µM (inactive) | > 100 µM (inactive) | > 100 µM (inactive)
21 | CC(=O)OCC1OC(OC2CC3C(C)(C)C(O)CC[C@]3(C)C3CCC45CC4(CC[C@H]5C(C)CC(O)C4OC4(C)C)[C@]23C)C(O)C(O)C1O (stereo not given in full) |  | 8 µM (inactive) | 8.09 µM (inactive) | 7.08 µM (inactive) | 5.21 µM (inactive) |  | 4.27 µM (inactive) | 8.13 µM (inactive) | 4.13 µM (inactive)
22 | COC(=O)C1=C(C(=O)OC)C2(CCCCCC2=O)OC1=O (stereo not given) | > 100 µM (inactive) | > 100 µM (inactive) |  |  | > 100 µM (inactive) | > 100 µM (inactive) | > 100 µM (inactive) | > 100 µM (inactive) | > 100 µM (inactive)
23 | CCOC(=O)C(Cc1ccccc1)NC(=O)c1nc[nH]c1/N=N/N(C)C (stereo not given) |  | > 100 µM (inactive) | > 100 µM (inactive) |  | > 100 µM (inactive) |  | > 100 µM (inactive) |  | 
24 | N#CC1(CCCCl)CCCCC1 | > 100 µM (inactive) | > 100 µM (inactive) | > 100 µM (inactive) | 72.9 µM (inactive) | > 100 µM (inactive) | > 100 µM (inactive) | > 100 µM (inactive) | > 100 µM (inactive) | > 100 µM (inactive)

From ChEMBL document CHEMBL1201862, “PubChem BioAssay data set” (2004)
